Source: US20240109853A1 (Shanghai Yao Yuan Biotechnology Co., Ltd., priority 2020, published 2024)
Where a name gives a salt, the structure may show the parent alone.

Experiments:
ALPK1 = ALPK1 (Homo sapiens (Human), UniProt Q96QP1); experiment: ALPK1 in vitro kinase assay (HTRF of TIFA phosphorylation); format: biochemical
[1] = tested on: ALPK1-dependent NFκB reporter gene activation in HEK293 cells stably expressing an NF-kB reporter (G9 cells); experiment: NFκB gene reporter alkaline phosphatase assay; format: cell-based; settings: Homo sapiens, HEK293; read-out: NFkB assay IC50
Summary of the method: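 HEK293 G9 cells carrying an NF-κB-driven alkaline phosphatase reporter, pretreated 30 min with serially diluted compound, then stimulated with D-glycero-D-manno-6-fluoro-heptose-1β-S-ADP. Reporter activity read with chromogenic pNPP substrate; IC50 from four-parameter logistic fit.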

ALPK1, sequence (Q96QP1 whole entry): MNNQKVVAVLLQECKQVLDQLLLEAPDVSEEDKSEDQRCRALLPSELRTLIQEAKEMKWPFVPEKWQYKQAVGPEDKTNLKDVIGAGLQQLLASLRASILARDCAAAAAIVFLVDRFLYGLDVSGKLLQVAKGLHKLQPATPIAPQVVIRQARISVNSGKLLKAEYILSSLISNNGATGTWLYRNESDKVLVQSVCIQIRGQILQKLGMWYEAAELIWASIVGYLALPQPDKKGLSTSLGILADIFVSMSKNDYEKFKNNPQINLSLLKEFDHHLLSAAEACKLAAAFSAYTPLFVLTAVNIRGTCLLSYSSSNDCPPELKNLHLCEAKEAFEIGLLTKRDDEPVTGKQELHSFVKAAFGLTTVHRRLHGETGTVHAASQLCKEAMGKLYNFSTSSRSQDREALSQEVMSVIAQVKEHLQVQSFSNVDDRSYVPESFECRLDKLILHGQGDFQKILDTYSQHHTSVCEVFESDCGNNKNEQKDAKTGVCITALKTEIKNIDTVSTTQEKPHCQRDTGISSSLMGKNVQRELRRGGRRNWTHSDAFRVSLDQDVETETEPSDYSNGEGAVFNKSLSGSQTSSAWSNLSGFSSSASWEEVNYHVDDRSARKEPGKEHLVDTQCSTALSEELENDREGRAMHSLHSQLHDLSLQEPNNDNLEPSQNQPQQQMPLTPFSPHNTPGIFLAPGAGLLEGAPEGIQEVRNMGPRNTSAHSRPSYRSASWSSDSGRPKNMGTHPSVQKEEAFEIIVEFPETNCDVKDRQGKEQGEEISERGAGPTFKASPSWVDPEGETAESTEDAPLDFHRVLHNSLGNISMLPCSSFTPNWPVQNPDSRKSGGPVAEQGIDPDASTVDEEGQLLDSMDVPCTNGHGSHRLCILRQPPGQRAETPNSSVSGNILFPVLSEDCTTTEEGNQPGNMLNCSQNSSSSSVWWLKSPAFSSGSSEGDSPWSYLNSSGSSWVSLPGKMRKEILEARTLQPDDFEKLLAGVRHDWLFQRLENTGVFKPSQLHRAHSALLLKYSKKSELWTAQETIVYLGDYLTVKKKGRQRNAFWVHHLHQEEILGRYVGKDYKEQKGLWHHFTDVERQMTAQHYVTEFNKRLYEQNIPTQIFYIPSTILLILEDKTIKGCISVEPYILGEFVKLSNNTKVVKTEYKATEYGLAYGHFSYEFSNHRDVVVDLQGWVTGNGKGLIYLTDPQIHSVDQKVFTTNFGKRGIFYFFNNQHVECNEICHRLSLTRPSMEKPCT

Row | SMILES | IC50 (ALPK1) [nM] | IC50 [1] [nM]
1 | COc1ccc(C(C)(C)c2csc(NC(=O)NCc3ccc(C(=O)NCCN)cc3)n2)cc1 [Example A218, N-(2-aminoethyl)-4-((3-(4-(2-(4-methoxyphenyl)propan-2-yl)thiazol-2-yl)ureido)methyl)benza-mide] | 29 | 6710
2 | CC(C)(c1ccc(Br)cc1)c1csc(NC(=O)NCc2ccc(N3CCNCC3)c(Cl)c2)n1 [Example A219, 1-(4-(2-(4-bromophenyl)propan-2-yl)thiazol-2-yl)-3-(3-chloro-4-(piperazin-1-yl)benzyl)urea] | 46 | 2730
3 | COc1cc(CNC(=O)Nc2nc(C(C)(C)c3ccc(Br)cc3)cs2)ccc1N1CCNCC1 [Example A220, 1-(4-(2-(4-bromophenyl)propan-2-yl)thiazol-2-yl)-3-(3-methoxy-4-(piperazin-1-yl)benzyl)urea] | 44 | 1320
4 | CC(C)Oc1cc(CNC(=O)Nc2nc(C(C)(C)c3ccc(Br)cc3)cs2)ccc1N1CCNCC1 [Example A221, 1-(4-(2-(4-bromophenyl)propan-2-yl)thiazol-2-yl)-3-(3-isopropoxy-4-(piperazin-1-yl)benzyl)urea] | 144 | 2380
5 | COc1ccc(C(C)(C)c2csc(NC(=O)NCc3cnc(N4CCNCC4)nc3C)n2)cc1 [Example A223, 1-(4-(2-(4-methoxyphenyl)propan-2-yl)thiazol-2-yl)-3-((4-methyl-2-(piperazin-1-yl)pyrimidin-5-yl)methyl)urea] | 49 | 760
6 | COc1ccc(C(C)(C)c2csc(NC(=O)NCc3ccc(C4CCNCC4)c(F)c3)n2)cc1 [Example A224, 1-(3-fluoro-4-(piperidin-4-yl)benzyl)-3-(4-(2-(4-methoxyphenyl)propan-2-yl)thiazol-2-yl)urea] | 21 | 730
7 | COc1ccc(C(C)(C)c2csc(NC(=O)NCc3ccc(N4CCNCC4)c(OC(C)C)c3)n2)cc1 [Example A225, 1-(3-isopropoxy-4-(piperazin-1-yl)benzyl)-3-(4-(2-(4-methoxyphenyl)propan-2-yl)thiazol-2-yl)urea] | 108 | 1050
8 | COc1ccc(C(C)(C)c2csc(NC(=O)NCCCN3CCC(N)C3)n2)cc1 (centres unmarked) [Example A226, 1-(3-(3-aminopyrrolidin-1-yl)propyl)-3-(4-(2-(4-methoxyphenyl)propan-2-yl)thiazol-2-yl)urea] | 100 | 4820
9 | COc1ccc(C(C)(C)c2csc(NC(=O)NCCN3CCC(N)C3)n2)cc1 (centres unmarked) [Example A227, 1-(2-(3-aminopyrrolidin-1-yl)ethyl)-3-(4-(2-(4-methoxyphenyl)propan-2-yl)thiazol-2-yl)urea] | 138 | 3120
10 | COc1ccc(C(C)(C)c2csc(NC(=O)NCCCN3CCNC(C)C3)n2)cc1 (centres unmarked) [Example A228, 1-(4-(2-(4-methoxyphenyl)propan-2-yl)thiazol-2-yl)-3-(3-(3-methylpiperazin-1-yl)propyl)urea] | 100 | 3860
11 | COc1ccc(C(C)(C)c2csc(NC(=O)NCCCS(=O)(=O)N3CCC(N)C3)n2)cc1 (centres unmarked) [Example A229, 1-(3-((3-aminopyrrolidin-1-yl)sulfonyl)propyl)-3-(4-(2-(4-methoxyphenyl)propan-2-yl)thiazol-2-yl)urea] | 169 | 2270
12 | COc1ccc(C(C)(C)c2csc(NC(=O)NCCCS(=O)(=O)N3CCNCC3)n2)cc1 [Example A230, 1-(4-(2-(4-methoxyphenyl)propan-2-yl)thiazol-2-yl)-3-(3-(piperazin-1-ylsulfonyl)propyl)urea] | 127 | 3010
13 | COc1ccc(C(C)(C)c2csc(NC(=O)NCc3cc(F)c(N4CCNCC4)cc3F)n2)cc1 [Example A231, 1-(2,5-difluoro-4-(piperazin-1-yl)benzyl)-3-(4-(2-(4-methoxyphenyl)propan-2-yl)thiazol-2-yl)urea hydrochloride] | 27 | 3360
14 | COc1ccc(C(C)(C)c2csc(NC(=O)NCc3cc(F)c(N4CC5CC(C4)N5)c(F)c3)n2)cc1 [Example A232] | 88 | 590
15 | COc1ccc(C(C)(C)c2csc(NC(=O)N3CC(c4ccc(N5CCNCC5)cc4)C3)n2)cc1 [Example A233, N-(4-(2-(4-methoxyphenyl)propan-2-yl)thiazol-2-yl)-3-(4-(piperazin-1-yl)phenyl)azetidine-1-carboxamide] | 43 | 330
16 | O=C(Nc1nc(C2(c3ccc(Br)cc3)CCCC2)cs1)N1CC(c2ccc(N3CCNCC3)c(F)c2)C1 [Example A236, N-(4-(1-(4-bromophenyl)cyclopent-yl)thiazol-2-yl)-3-(3-fluoro-4-(piperazin-1-yl)phenyl)azetidine-1-carboxamide] | 13 | 4500
17 | C#CC(C)(c1ccc(Br)cc1)c1csc(NC(=O)N2CC(c3ccc(N4CCNCC4)cc3)C2)n1 (centres unmarked) [Example A237, N-(4-(2-(4-bromophenyl)but-3-yn-2-yl)thiazol-2-yl)-3-(4-(piperazin-1-yl)phenyl)azetidine-1-carboxamide] | 7 | 610

Row | SMILES | IC50 (ALPK1) [nM] | IC50 [1] [nM]
18 | C#CC(C)(c1ccc(Br)cc1)c1csc(NC(=O)NCC2(O)CCNCC2)n1 (centres unmarked) [Example A238, 1-(4-(2-(4-bromophenyl)but-3-yn-2-yl)thiazol-2-yl)-3-((4-hydroxypiperidin-4-yl)methyl)urea] | 19 | 27000
19 | COc1ccc(C(C)(C)c2csc(NC(=O)NC3(c4ccc(N5CCNCC5)cc4)CC3)n2)cc1 [Example A240, 1-(4-(2-(4-methoxyphenyl)propan-2-yl)thiazol-2-yl)-3-(1-(4-(piperazin-1-yl)phenyl)cyclopropyl)u-rea] | 97 | 1880
20 | CCNC(=O)Nc1nc(C(C)(C)c2ccc(Br)cc2)cs1 [Example A241, 1-(4-(2-(4-bromophenyl)propan-2-yl)thiazol-2-yl)-3-ethylurea] | 98 | 3410
21 | CCNC(=O)Nc1nc(C(C)(C)c2ccc(OC)cc2)cs1 [Example A242, 1-ethyl-3-(4-(2-(4-methoxyphenyl)propan-2-yl)thiazol-2-yl)urea] | 42 | 980
22 | C#CC(C)(c1ccc(Cl)cc1)c1csc(NC(=O)NCCS(N)(=O)=O)n1 (centres unmarked) [Example A243, 2-(3-(4-(2-(4-chlorophenyl)but-3-yn-2-yl)thiazol-2-yl)ureido)ethane-1-sulfonamide] | 23 | 590
23 | C#C[C@](C)(c1ccc(Cl)cc1)c1csc(NC(=O)N2CC(c3ccc(N4CCNCC4)c(F)c3)C2)n1 [Example A246, (R)-N-(4-(2-(4-chlorophenyl)but-3-yn-2-yl)thiazol-2-yl)-3-(3-fluoro-4-(piperazin-1-yl)phenyl)azetidine-1-carboxamide] | 29 | 1590
24 | C#C[C@](C)(c1ccc(Cl)cc1)c1csc(NC(=O)NCCC(C)(C)O)n1 [Example A250, (R)-1-(4-(2-(4-chlorophenyl)but-3-yn-2-yl)thiazol-2-yl)-3-(3-hydroxy-3-methylbutyl)urea] | 417 | 1180
25 | C#CC(C)(c1ccc(Cl)cc1)c1csc(NC(=O)N(CCO)CCO)n1 (centres unmarked) [Example A253, 3-(4-(2-(4-chlorophenyl)but-3-yn-2-yl)thiazol-2-yl)-1,1-bis(2-hydroxyethyl)urea] | 172 | 3050
26 | C#CC(C)(c1ccc(Cl)cc1)c1csc(NC(=O)N(C)CCO)n1 (centres unmarked) [Example A254, 3-(4-(2-(4-chlorophenyl)but-3-yn-2-yl)thiazol-2-yl)-1-(2-hydroxyethyl)-1-methylurea] | 548 | 2070
27 | C#C[C@@](C)(c1ccc(OC)cc1)c1csc(NC(=O)N2CC(CO)C2)n1 [Example A256, (S)-3-(hydroxymethyl)-N-(4-(2-(4-methoxyphenyl)but-3-yn-2-yl)thiazol-2-yl)azetidine-1-carboxamide] | 273 | 14300
28 | C#C[C@](C)(c1ccc(Cl)cc1)c1csc(NC(=O)N2CC(CO)C2)n1 [Example A257, (R)-N-(4-(2-(4-chlorophenyl)but-3-yn-2-yl)thiazol-2-yl)-3-(hydroxymethyl)azetidine-1-carboxamide] | 1550 | 2010
29 | C#C[C@@](C)(c1ccc(Cl)cc1)c1csc(NC(=O)N2CC(CO)C2)n1 [Example A258, (S)-N-(4-(2-(4-chlorophenyl)but-3-yn-2-yl)thiazol-2-yl)-3-(hydroxymethyl)azetidine-1-carboxamide] | 357 | 1330
30 | C#CC(C)(c1ccc(Cl)cc1)c1csc(NC(=O)N2CC(CN3CCNCC3)C2)n1 (centres unmarked) [Example A259, N-(4-(2-(4-chlorophenyl)but-3-yn-2-yl)thiazol-2-yl)-3-(piperazin-1-ylmethyl)azetidine-1-carboxamide] | 48 | 440
31 | C#CC(C)(c1ccc(Cl)cc1)c1csc(NC(=O)NCc2ccc(N3CCNCC3)c(F)c2)n1 (centres unmarked) [Example A262, 1-(4-(2-(4-chlorophenyl)but-3-yn-2-yl)thiazol-2-yl)-3-(3-fluoro-4-(piperazin-1-yl)benzyl)urea] | 13 | 670
32 | C#CC(C)(c1ccc(Cl)cc1)c1csc(NC(=O)N2CC(CN3CCC(N)CC3)C2)n1 (centres unmarked) [Example A263, 3-((4-aminopiperidin-1-yl)methyl)-N-(4-(2-(4-chlorophenyl)but-3-yn-2-yl)thiazol-2-yl)azetidine-1-carboxamide] | 39 | 1440
33 | C#CC(C)(c1ccc(Cl)cc1)c1csc(NC(=O)N2CCC(CO)CC2)n1 (centres unmarked) [Example A264, N-(4-(2-(4-chlorophenyl)but-3-yn-2-yl)thiazol-2-yl)-4-(hydroxymethyl)piperidine-1-carboxamide] | 1370 | 2810
34 | C#CC(C)(c1ccc(Cl)cc1)c1csc(NC(=O)N2CCC(N)CC2)n1 (centres unmarked) [Example A265, 4-amino-N-(4-(2-(4-chlorophenyl)but-3-yn-2-yl)thiazol-2-yl)piperidine-1-carboxamide] | 4970 | 2900
